Measured values reported in US7888368B2, “Treatment of drug-resistant tumors” (Sigma-Tau Industrie Farmaceutiche Riunite S.p.A., priority 2005, dated 2011).
Positions count from the first letter of the chain named.

How the values were obtained:
[1] = molecular target: T1, human DNA topoisomerase I wild type (YCpGAL1 hTOP1) (Homo sapiens, UniProt P11387); experiment: In vivo spot test, yeast transformed with human DNA topoisomerase I wild type; conditions: Saccharomyces cerevisiae EKY2, 2% galactose, drug 45 μM, 48-72 h at 30° C.
T1 sequence (P11387 1-765): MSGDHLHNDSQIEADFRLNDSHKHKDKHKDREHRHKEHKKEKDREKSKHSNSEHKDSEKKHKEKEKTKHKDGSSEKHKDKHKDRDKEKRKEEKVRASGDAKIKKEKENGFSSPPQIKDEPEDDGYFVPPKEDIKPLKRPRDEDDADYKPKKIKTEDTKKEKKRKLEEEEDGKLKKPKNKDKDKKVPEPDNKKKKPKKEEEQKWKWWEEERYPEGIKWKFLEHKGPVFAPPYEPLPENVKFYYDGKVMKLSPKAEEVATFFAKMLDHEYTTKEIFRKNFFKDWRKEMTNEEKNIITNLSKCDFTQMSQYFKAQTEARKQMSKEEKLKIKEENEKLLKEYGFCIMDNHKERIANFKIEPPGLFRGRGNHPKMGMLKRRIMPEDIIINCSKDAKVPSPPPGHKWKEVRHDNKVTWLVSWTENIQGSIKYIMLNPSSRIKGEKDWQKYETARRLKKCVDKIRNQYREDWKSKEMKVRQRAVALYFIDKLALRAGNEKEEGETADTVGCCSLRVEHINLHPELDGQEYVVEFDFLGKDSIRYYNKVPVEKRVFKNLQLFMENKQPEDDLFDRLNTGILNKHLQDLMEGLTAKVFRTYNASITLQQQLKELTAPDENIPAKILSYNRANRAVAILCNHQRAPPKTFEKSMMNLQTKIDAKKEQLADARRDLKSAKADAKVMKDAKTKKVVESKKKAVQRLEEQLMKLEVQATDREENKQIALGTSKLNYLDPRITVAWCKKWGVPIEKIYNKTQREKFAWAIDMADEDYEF
Description: Before to transform the yeast cells with DNA (lithium acetate method), yeast was grown on solid medium. It was streaked on plates of 90 mm containing sterile solid medium (YPDA) (10 g yeast, 20 g peptone, 20 g dextrose, 0.7 g adenine, 20 g glucose, 20 g agar for liter). Colonies were grown after 48 h at 30° C. One day before the transformation, a single yeast colony of the strain to be transformed was inoculated in 5 ml of steril liquid YPDA (the medium above mentioned without agar). The colony was grown to saturation overnight under stirring at 30° C. The day after, 5 ml of saturated culture was diluted in 100 ml of YPDA liquid medium and grown at 30° C. to reach an optical density of 1.0 at 600 nm. Cells were centrifuged for 5 min at 4000×g at room temperature and the pellet was resuspended in 25 ml of a solution (T/E) containing 10 mM Tris-EDTA pH7.5, 1 mM EDTA and 100 mM lithium acetate. The yeast suspension was centrifuged for 5 min at 4000×g at room temperature. The pellet was resuspended in a fresh solution above described (about 500 μl) to obtain 2×10^9 cells/ml. To have the transformation, 200 μg of DNA carrier were mixed with 1 μg transforming DNA and 200 μl yeast cells in an eppendorf. Subsequently, 1.2 ml of a solution TE/lithium acetate containing 40% PEG were added and the yeast suspension was kept under stirring for 30 min at 30° C. A heat shock was performed by keeping the yeast suspension at 42° C. for 15 min. Subsequently it was centrifuged 5 sec at room temperature. Yeast was resuspended in TE buffer and spread up onto CM (complete minimal) dropout medium on plates. CM was previously prepared with 1.3 g of dropout powder containing different aminoacids without uracil, 1.7 g yeast nitrogen base without aminoacids and ammonium sulfate, 5 g ammonium sulfate, 20 g glucose and 20 of agar for liter). The plates were incubated at 30° C. until transformants appear.
To perform the in vivo spot test, the transformants were inoculated in 5 ml of steril liquid CM medium and grown overnight under stirring at 30° C. The day after a dilution of the yeast colonies was made to reach an optical density at 600 nm of 0.3. Starting from this first dilution, other serial dilutions (1:10, 1:100, 1:1000) were performed in plates of 96 well. 5 μl of each dilution were put on plates of 90 mm containing solid CM medium. For the control samples, 2% glucose or 2% galactose were added; for the camptothecin-derivatives treated samples, 2% galactose and the drugs at a concentration 45 μM were added. The yeast colonies were incubated at 30° C. for 48-72 h and analyzed macroscopically.

[2] = molecular target: T2, human DNA topoisomerase I mutant YCpGAL1htop1K720E (Homo sapiens, UniProt P11387, K720E); experiment: In vivo spot test, yeast transformed with human DNA topoisomerase I mutant K720E; type: cell-based; conditions: Saccharomyces cerevisiae EKY2, 2% galactose, drug 45 μM, 48-72 h at 30° C.
T2 sequence (P11387 1-765 K720E): T1 sequence (P11387 1-765) with K720E

[3] = system: A2780/ADR multidrug-resistant ovarian carcinoma; experiment: Antitumor activity on A2780/ADR resistant tumor xenograft; type: in vivo, human; conditions: A2780/ADR s.c. in nude athymic mice, q4d × 4
Description: (§1) Using a q4d dosing schedule repeated for 3-5 doses, ST1968 was compared to irinotecan or other known chemotherapeutic agents against different human tumor models (Table 2), including A2780/ADR multidrug-resistant ovarian carcinoma which overexpresses PgP glycoprotein, A2780/DDP platinum-resistant ovarian carcinoma and DU145RC1 camptothecin-resistant prostate carcinoma which was previously selected by continuous exposure of the parental sensitive DU145 to 9-nitro-camptothecin (Urasaki Y et al., 2001, Cancer Res 61, 1964-9). On this selected tumor cell line, a Topoisomerase I mutation which changes the arginine 364 codon to histidine (R364H) was found. The 364H point mutation was located in the highly conserved core, a region of Topoisomerase I within the Topoisomerase I amino acid residues 361-364 critical for camptothecin resistance. Moreover, this mutation site is close to the catalytic tyrosine. The resistance of the Topoisomerase I/R364H is probably attributable to the loss of a critical H-bond between R364 and camptothecin E-ring lactone moiety.
(§2) Exponentially growing tumor cells were injected s.c. into nude athymic mice. The number of tumor cells was previously chosen by a growth curve. Mice were housed inside cages of makrolon (33.2×15×13 cm) with stainless steel cover-feed and sterilized and dust-free bedding cobs. Animals were housed under a light-dark cycle, keeping temperature and humidity constant. Parameters of the animal rooms were assessed as follows: 22±2° C. temperature, 55±10% relative humidity, about 15-20 filtered air changes/hour and 12 hour circadian cycle of artificial light (7 a.m., 7 p.m.). At request, the environmental conditions were monitored and the data are retained in Animal Housing Archives. Drinking water was supplied ad libitum. Each mouse was offered daily a complete pellet diet (GLP 4RF21, Mucedola) throughout the study. The analytical certificates of animal food and water are retained at Sigma-Tau premises. All animals were weighed before starting the experiment and were subdivided into the different dosage groups. Each cage was identified by a paper tag indicating: cage number, group, date of tumor injection, starting date of treatment, name of the test item, dose and route of administration, date of sacrifice.
(§3) Tumor growth was followed by biweekly measurements of tumor diameters with a Vernier caliper. Tumor volume (TV, mm^3) was calculated as: [length (mm)×width (mm)^2]/2, where the width and the length are the shortest and the longest diameters of each tumor, respectively.
(§4) The efficacy of the drug treatment was assessed as: a) Tumor volume inhibition (TVI %) in treated versus control mice, calculated as: 100−[(mean tumor volume of treated animals/mean tumor volume of control animals)×100]; b) LCK (log10 cell kill) calculated by the formula LCK=(T−C)/3.32×DT, where T and C are the mean times (days) required for treated (T) and control (C) tumor, respectively, to reach 1000 mm^3, and DT is the doubling time of control tumors; CR meaning no evidence of tumor lasting for at least 10 days.

[4] = system: A2780/DDP platinum-resistant ovarian carcinoma; experiment: Antitumor activity on A2780/DDP resistant tumor xenograft; type: in vivo, human; conditions: A2780/DDP s.c. in nude athymic mice, q4d × 3
Description: as §1, §2, §3, §4

[5] = system: DU145RC1 camptothecin-resistant prostate carcinoma; experiment: Antitumor activity on DU145RC1 resistant tumor xenograft; type: in vivo, human; conditions: DU145 RC1 s.c. in nude athymic mice, q4d × 5
Description: as §1, §2, §3, §4

[6] = system: DU145 sensitive prostate carcinoma; experiment: Antitumor activity on DU145 tumor xenograft; type: in vivo, human; conditions: DU145 s.c. in nude athymic mice, 35 iv mg/kg, q4d × 4
Description: Using a q4d dosing schedule repeated for 3-5 doses, ST1968 was compared to irinotecan or other known chemotherapeutic agents against different human tumor models (Table 2), including A2780/ADR multidrug-resistant ovarian carcinoma which overexpresses PgP glycoprotein, A2780/DDP platinum-resistant ovarian carcinoma and DU145RC1 camptothecin-resistant prostate carcinoma which was previously selected by continuous exposure of the parental sensitive DU145 to 9-nitro-camptothecin (Urasaki Y et al., 2001, Cancer Res 61, 1964-9). On this selected tumor cell line, a Topoisomerase I mutation which changes the arginine 364 codon to histidine (R364H) was found. […]
Exponentially growing tumor cells were injected s.c. into nude athymic mice. […] Parameters of the animal rooms were assessed as follows: 22±2° C. temperature, 55±10% relative humidity, about 15-20 filtered air changes/hour and 12 hour circadian cycle of artificial light (7 a.m., 7 p.m.). At request, the environmental conditions were monitored and the data are retained in Animal Housing Archives. […]
Tumor growth was followed by biweekly measurements of tumor diameters with a Vernier caliper. Tumor volume (TV, mm^3) was calculated as: [length (mm)×width (mm)^2]/2, where the width and the length are the shortest and the longest diameters of each tumor, respectively. […]

## CC[C@@]1(O)C(=O)OCc2c1cc1n(c2=O)Cc2c-1nc1ccccc1c2/C=N/OC(C)(C)C [ST1481, 7-t-butoxyiminomethylcamptothecin]
[1]
  growth of the yeasts transformed with the DNA topoisomerase I wild type: inhibit the growth

## CCC1(O)C(=O)OCc2c1cc1n(c2=O)Cc2c-1nc1ccccc1c2C=NOCCN1CCOCC1 (stereo not drawn) [ST1600, 7-[2-(4-morpholinyl)ethoxy]iminomethylcamptothecin]
[1]
  growth of the yeasts transformed with the DNA topoisomerase I wild type: inhibit the growth

## CC[C@@]1(O)C(=O)OCc2c1cc1n(c2=O)Cc2c-1nc1ccccc1c2/C=N\OCCN [ST1968, 7-(2-amino)ethoxyiminomethylcamptothecin]
[2]
  growth of the transformed YCpGAL1htop1K720E mutant: able to inhibit the growth
[3]; 15 mg/kg
  CR: 6/8
  LCK: 2.2
  TVI %: 99%
[3]; 30 mg/kg
  LCK: 1.9
  TVI %: 100%
[4]; 15 mg/kg
  CR: 8/8
  LCK: 6.3
  TVI %: 100%
[4]; 30 mg/kg
  CR: 7/7
  LCK: >>6.3
  TVI %: 100%
[5]; 30 mg/kg
  CR: 0/8
  LCK: 1.3
  TVI %: 65%
[6]
  LCK: 0.65
  TVI %: 66%
[1]
  growth of the yeasts transformed with the DNA topoisomerase I wild type: inhibit the growth

## CCC1(O)C(=O)OCc2c1cc1n(c2=O)Cc2c-1nc1ccccc1c2C=NOCCN(C)C (stereo not drawn) [ST1969, 7-(2-dimethylamino)ethoxyiminomethylcamptothecin]
[2]
  growth of the transformed YCpGAL1htop1K720E mutant: able to inhibit the growth
[1]
  growth of the yeasts transformed with the DNA topoisomerase I wild type: inhibit the growth

## CCC1(O)C(=O)OCc2c1cc1n(c2=O)Cc2c-1nc1ccccc1c2C=NOCc1ccc(N)cc1 (stereo not drawn) [ST1976, 7-(4-amino)benzyloxyiminomethylcamptothecin]
[1]
  growth of the yeasts transformed with the DNA topoisomerase I wild type: inhibit the growth

## CC[C@@]1(O)C(=O)OCc2c1cc1n(c2=O)Cc2cc3ccccc3nc2-1 [camptothecin]
[1]
  growth of the yeasts transformed with the DNA topoisomerase I wild type: inhibit the growth

## N.N.O=C([O-])C1(C(=O)[O-])CCC1.[Pt+2] [carboplatin]
[3]; 33.3 mg/kg
  CR: 0/7
  LCK: 0.6
  TVI %: 62%
[4]; 25 mg/kg
  CR: 0/8
  LCK: 0.5
  TVI %: 26%

## CCc1c2c(nc3ccc(OC(=O)N4CCC(N5CCCCC5)CC4)cc13)-c1cc3c(c(=O)n1C2)COC(=O)[C@]3(O)CC [irinotecan]
[5]; 60 mg/kg
  CR: 0/8
  LCK: 0.8
  TVI %: 45%

## CC(=O)O[C@H]1C(=O)[C@@]2(C)[C@H]([C@H](OC(=O)c3ccccc3)[C@]3(O)C[C@H](OC(=O)[C@H](O)[C@@H](NC(=O)c4ccccc4)c4ccccc4)C(C)=C1C3(C)C)[C@]1(OC(C)=O)CO[C@@H]1C[C@@H]2O [paclitaxel]
[3]; 16 mg/kg
  CR: 0/8
  LCK: 0.1
  TVI %: 16%
[4]; 15 mg/kg
  CR: 6/6
  LCK: 1.4
  TVI %: 94%

## CC[C@@]1(O)C(=O)OCc2c1cc1n(c2=O)Cc2cc3c(CN(C)C)c(O)ccc3nc2-1 [topotecan]
[3]; 10 mg/kg
  CR: 1/6
  LCK: 1.1
  TVI %: 85%
[4]; 10 mg/kg
  CR: 1/8
  LCK: 1.2
  TVI %: 93%
